18 compounds from ChEMBL document CHEMBL1255416, “Genetic and biochemical characterization of TRU-1, the endogenous class C beta-lactamase from Aeromonas enteropelogenes” (Antimicrob Agents Chemother, 2010) can be followed below.

pKi: −log10 of the molar value. Converted amounts (≈) assume the structure as drawn.

Assay [1] relates to Aeromonas enteropelogenes. The experiment in a line: Antimicrobial activity against Aeromonas enteropelogenes M1 hyperproducing beta-lactamase AmpC. It counts as functional.
The test system of assay [2] is Escherichia coli. The experiment in a line: Antimicrobial activity against Escherichia coli TOP10. It counts as functional.
Assay [3] concerns Aeromonas enteropelogenes. The experiment in a line: Activity of Aeromonas enteropelogenes Beta-lactamase TRU1.
In assay [4] the test system is Aeromonas caviae. The experiment in a line: Activity of Aeromonas caviae Beta-lactamase CAV1.
In assay [5] the test system is Aeromonas enteropelogenes. The experiment in a line: Ratio of Kcat Km for Aeromonas enteropelogenes Beta-lactamase TRU1.
Assay [6] has as its system Aeromonas caviae. The experiment in a line: Ratio of Kcat Km for Aeromonas caviae Beta-lactamase CAV1.
Assay [7] relates to Escherichia coli K-12. The experiment in a line: Activity of Escherichia coli K-12 Beta-lactamase AmpC.
In assay [8] the test system is Escherichia coli K-12. The experiment in a line: Ratio of Kcat Km for Escherichia coli K-12 Beta-lactamase AmpC.
Assay [9] relates to Aeromonas enteropelogenes. The experiment in a line: (§1) Inhibition of Aeromonas enteropelogenes Beta-lactamase TRU1.
Assay [10] relates to Aeromonas enteropelogenes. The experiment in a line: Activity of Aeromonas enteropelogenes Beta-lactamase TRU1 assessed as steady state compound hydrolysis rate.
The test system of assay [11] is Aeromonas enteropelogenes. The experiment in a line: Ratio of Kcat Km for Aeromonas enteropelogenes Beta-lactamase TRU1 assessed as steady state compound hydrolysis rate.
Assay [12] deals with Aeromonas enteropelogenes. The experiment in a line: Antimicrobial activity against Aeromonas enteropelogenes ATCC 49803 producing endogenous class C beta-lactamase TRU-1. It counts as functional.
Assay [13] relates to Escherichia coli. The experiment in a line: Antimicrobial activity against Escherichia coli NI540 carrying cloned class C beta-lactamase TRU-1 gene. It counts as functional.
Assay [14] can be described thus: as §1.

In the case of `CO/N=C(\C(=O)N[C@@H]1C(=O)N2C(C(=O)[O-])=C(C[N+]3(C)CCCC3)CS[C@H]12)c1csc(N)n1`, the minimal inhibitory concentration (MIC) in assay [1] was 2 µg/mL (≈ 4.16 µM); against Escherichia coli [2], 0.03 µg/mL (≈ 0.0624 µM). Besides, the results for the Km (in assay [3]; in the assay with Aeromonas caviae [4]) were 360 µM and 690 µM, respectively. Moreover, the catalytic constant (kcat) in assay [3] turned out to be 9.4 s⁻¹; in the assay with Aeromonas caviae [4] it was 2.5 s⁻¹. Besides, the kcat/Km in assay [5] was 2.6 ×10⁴ /M/s; with Aeromonas caviae [6] it was 3.6 ×10³ /M/s.
As for `CC1(C)S[C@@H]2[C@H](NC(=O)[C@H](N)c3ccccc3)C(=O)N2[C@H]1C(=O)O`, the figures for the Michaelis constant (Km) (in [3]; with Escherichia coli K-12 [7]) were 0.72 µM and 3.5 µM, respectively. The catalytic constant (kcat) worked out at 0.63 s⁻¹ in [3] and 4.2 s⁻¹ in the assay on Escherichia coli K-12 [7]. For the same compound, the kcat/Km amounted to 8.8 ×10⁵ /M/s in [5] and 1.2 ×10⁶ /M/s in the assay on Escherichia coli K-12 [8].
In the case of `CC1=C(C(=O)O)N2C(=O)[C@@H](NC(=O)[C@H](N)c3ccccc3)[C@H]2SC1`, in assay [3], the Km amounted to 17 µM and the kcat is 160 s⁻¹. Further, in assay [5], the kcat/Km came out at 9.3 ×10⁶ /M/s.
`CO/N=C(\C(=O)N[C@@H]1C(=O)N2C(C(=O)O)=C(COC(N)=O)CS[C@H]12)c1ccco1`: the values for the kcat (in [3]; in the assay with Escherichia coli K-12 [7]) were 0.042 s⁻¹ and 0.15 s⁻¹, respectively. Besides, in the assay with Escherichia coli K-12 [7], the Michaelis constant (Km) was determined as 0.15 µM. Further, the kcat/Km in assay [5] turned out to be 3.8 ×10⁶ /M/s; in the assay with Escherichia coli K-12 [8], 1 ×10⁶ /M/s.
Turning to `CO/N=C(\C(=O)N[C@@H]1C(=O)N2C(C(=O)O)=C(CSc3nc(=O)c(O)nn3C)CS[C@H]12)c1csc(N)n1`, the catalytic constant (kcat) in assay [3] was 0.042 s⁻¹. Moreover, the Km in assay [9] stood at 6 µM. Besides, the kcat/Km in assay [5] was 7 ×10⁵ /M/s.
As for `Cc1nnc(SCC2=C(C(=O)O)N3C(=O)[C@@H](NC(=O)Cn4cnnn4)[C@H]3SC2)s1`, the Km was 120 µM in [3] and 80 µM in assay [10]. For the same compound, the results for the kcat in assay [3] and in [10] were 0.55 s⁻¹ and 0.25 s⁻¹, respectively. Further, the kcat/Km in assay [5] is 4.6 ×10³ /M/s; in [11] it was 3.1 ×10³ /M/s.
On to `O=C(Cc1cccs1)N[C@@H]1C(=O)N2C(C(=O)[O-])=C(C[n+]3ccccc3)CS[C@H]12`, for which the Km in assay [3] was over 600 µM; with Aeromonas caviae [4], 770 µM; in the assay with Escherichia coli K-12 [7], 4 µM. Besides, the catalytic constant (kcat) in assay [3] is over 100 s⁻¹; with Aeromonas caviae [4] it was 300 s⁻¹; in the assay with Escherichia coli K-12 [7], 38 s⁻¹. In addition, the values for the kcat/Km (in [5]; in the assay with Aeromonas caviae [6]; with Escherichia coli K-12 [8]) were 1.7 ×10⁵ /M/s, 3.9 ×10⁵ /M/s and 9.5 ×10⁶ /M/s, respectively.
As for `CC1(C)S[C@@H]2[C@H](NC(=O)[C@H](N)c3ccc(O)cc3)C(=O)N2[C@H]1C(=O)O` [AMOXICILLIN], the minimum inhibitory concentration (MIC) was 2 µg/mL (≈ 5.47 µM) in assay [12], 4 µg/mL (≈ 10.9 µM) in assay [1], 32 µg/mL (≈ 87.6 µM) against Escherichia coli [13] and 2 µg/mL (≈ 5.47 µM) with Escherichia coli [2].
Turning to `C[C@H]1[C@H](NC(=O)/C(=N\OC(C)(C)C(=O)O)c2csc(N)n2)C(=O)N1S(=O)(=O)O` [AZTREONAM], it took 0.125 µg/mL (≈ 0.287 µM) to inhibit growth in [1] (MIC). For the same compound, the Km in assay [3] is over 500 µM.
As for `CO/N=C(\C(=O)N[C@@H]1C(=O)N2C(C(=O)O)=C(COC(C)=O)CS[C@H]12)c1csc(N)n1` [CEFOTAXIME], the minimum inhibitory concentration (MIC) in assay [12] came to 0.032 µg/mL (≈ 0.0703 µM); in [1], 32 µg/mL (≈ 70.3 µM); in the assay on Escherichia coli [13], 8 µg/mL (≈ 17.6 µM); in the assay on Escherichia coli [2], 0.06 µg/mL (≈ 0.132 µM). The results for the kcat (in assay [3]; in the assay with Aeromonas caviae [4]; in the assay with Escherichia coli K-12 [7]) were 0.015 s⁻¹, 0.2 s⁻¹ and 0.17 s⁻¹, respectively. The Michaelis-Menten constant (Km) with Aeromonas caviae [4] worked out at 0.1 µM; in the assay with Escherichia coli K-12 [7] it was 1.7 µM. Besides, the kcat/Km was found to be 1.7 ×10⁷ /M/s in assay [5], 2 ×10⁶ /M/s in the assay on Aeromonas caviae [6] and 1 ×10⁵ /M/s in the assay with Escherichia coli K-12 [8].
`CO[C@@]1(NC(=O)Cc2cccs2)C(=O)N2C(C(=O)O)=C(COC(N)=O)CS[C@@H]21` [CEFOXITIN]: the MIC in assay [12] came out at 8 µg/mL (≈ 18.7 µM); in assay [1], 32 µg/mL (≈ 74.9 µM); with Escherichia coli [13], 128 µg/mL (≈ 299 µM); with Escherichia coli [2], 4 µg/mL (≈ 9.36 µM). Moreover, the turnover number (kcat) in assay [3] amounted to 0.88 s⁻¹; in the assay on Aeromonas caviae [4], 0.5 s⁻¹; with Escherichia coli K-12 [7], 0.2 s⁻¹. Further, the Km in the assay on Aeromonas caviae [4] came to 0.4 µM; in the assay on Escherichia coli K-12 [7], 0.65 µM; in [9] it was 0.025 µM. Moreover, the figures for the kcat/Km (in [5]; with Aeromonas caviae [6]; in the assay with Escherichia coli K-12 [8]) were 3.5 ×10⁷ /M/s, 1.3 ×10⁶ /M/s and 3 ×10⁵ /M/s, respectively.
Regarding `CO/N=C(\C(=O)N[C@@H]1C(=O)N2C(C(=O)[O-])=C(C[n+]3cccc4c3CCC4)CS[C@H]12)c1csc(N)n1` [CEFPIROME], the minimum inhibitory concentration (MIC) is 0.125 µg/mL (≈ 0.243 µM) in assay [12], 4 µg/mL (≈ 7.77 µM) in [1], 0.5 µg/mL (≈ 0.972 µM) against Escherichia coli [13] and 0.03 µg/mL (≈ 0.0583 µM) against Escherichia coli [2]. Further, the Michaelis constant (Km) in assay [3] stood at 85 µM. For the same compound, the catalytic constant (kcat) in [3] is 23 s⁻¹. Also, in [5], the kcat/Km was found to be 2.7 ×10⁵ /M/s.
As for `CC(C)(O/N=C(\C(=O)N[C@@H]1C(=O)N2C(C(=O)[O-])=C(C[n+]3ccccc3)CS[C@H]12)c1csc(N)n1)C(=O)O` [CEFTAZIDIME], the minimum inhibitory concentration (MIC) was determined as 0.125 µg/mL (≈ 0.229 µM) in assay [12], 16 µg/mL (≈ 29.3 µM) in assay [1], 8 µg/mL (≈ 14.6 µM) against Escherichia coli [13] and 0.125 µg/mL (≈ 0.229 µM) with Escherichia coli [2]. The results for the kcat (in [3]; in the assay on Aeromonas caviae [4]) were 0.11 s⁻¹ and 0.2 s⁻¹, respectively. Also, the Km came out at 0.6 µM in the assay with Aeromonas caviae [4] and 0.12 µM in assay [9]. Besides, the kcat/Km is 9.2 ×10⁵ /M/s in assay [5] and 3.3 ×10⁵ /M/s with Aeromonas caviae [6].
Consider `CC(=O)OCC1=C(C(=O)O)N2C(=O)[C@@H](NC(=O)Cc3cccs3)[C@H]2SC1` [CEPHALOTHIN], for which the MIC in assay [12] was over 256 µg/mL; in assay [1] it was over 256 µg/mL; against Escherichia coli [13], 256 µg/mL (≈ 646 µM); against Escherichia coli [2], 4 µg/mL (≈ 10.1 µM). Besides, the Michaelis-Menten constant (Km) was 45 µM in [3], 500 µM with Aeromonas caviae [4] and 42 µM with Escherichia coli K-12 [7]. The turnover number (kcat) in assay [3] came out at 470 s⁻¹; in the assay with Aeromonas caviae [4] it was 540 s⁻¹; in the assay with Escherichia coli K-12 [7], 300 s⁻¹. In addition, the kcat/Km is 1 ×10⁷ /M/s in assay [5], 1.1 ×10⁶ /M/s in the assay with Aeromonas caviae [6] and 7 ×10⁶ /M/s in the assay with Escherichia coli K-12 [8].
With `C[C@@H](O)[C@H]1C(=O)N2C(C(=O)O)=C(SCCNC=N)C[C@H]12` [IMIPENEM ANHYDROUS], the minimum inhibitory concentration (MIC) was found to be 0.125 µg/mL (≈ 0.418 µM) in assay [12], 0.125 µg/mL (≈ 0.418 µM) in [1] and 0.25 µg/mL (≈ 0.835 µM) with Escherichia coli [13]. Also, in [3], the Michaelis-Menten constant (Km) was over 500 µM.
As for `CC1(C)S[C@@H]2[C@H](NC(=O)Cc3ccccc3)C(=O)N2[C@H]1C(=O)O` [PENICILLIN G], the turnover number (kcat) in [3] came to 27 s⁻¹; with Aeromonas caviae [4] it was 5 s⁻¹; in the assay on Escherichia coli K-12 [7], 45 s⁻¹. In addition, the values for the Michaelis-Menten constant (Km) with Aeromonas caviae [4] and with Escherichia coli K-12 [7] were 8.7 µM and 4.4 µM, respectively. Moreover, the negative logarithm of the Ki (pKi) in assay [14] is 5.70. The values for the kcat/Km (in assay [5]; with Aeromonas caviae [6]; with Escherichia coli K-12 [8]) were 1.4 ×10⁷ /M/s, 5.7 ×10⁵ /M/s and 1 ×10⁷ /M/s, respectively.
On to `CCN1CCN(C(=O)N[C@@H](C(=O)N[C@@H]2C(=O)N3[C@@H]2SC(C)(C)[C@@H]3C(=O)O)c2ccccc2)C(=O)C1=O` [PIPERACILLIN], for which the MIC in assay [12] turned out to be 0.25 µg/mL (≈ 0.483 µM); in [1], 4 µg/mL (≈ 7.73 µM); in the assay on Escherichia coli [13], 8 µg/mL (≈ 15.5 µM); with Escherichia coli [2] it was 1 µg/mL (≈ 1.93 µM). In assay [3], the kcat came out at 0.54 s⁻¹. In addition, the pKi in [14] was 6.70. In assay [5], the kcat/Km came out at 2.7 ×10⁶ /M/s.
On to `CC1(C)S[C@@H]2[C@H](NC(=O)[C@H](C(=O)O)c3ccsc3)C(=O)N2[C@H]1C(=O)O` [TICARCILLIN], for which the MIC came to 0.125 µg/mL (≈ 0.325 µM) in assay [12], 8 µg/mL (≈ 20.8 µM) in assay [1], 64 µg/mL (≈ 166 µM) against Escherichia coli [13] and 4 µg/mL (≈ 10.4 µM) in the assay with Escherichia coli [2].

Broadly, the MIC is the least concentration at which growth counts as inhibited. Higher therefore signals a less susceptible organism. Usually Km stands for the concentration of substrate that gives half-maximal velocity. The kcat is the number of substrate molecules converted per active site and unit of time at saturation. Broadly, the pKi is the Ki on a negative log10 scale, so that one unit is a factor of ten. A lower pKi goes with a large Ki.
